Test results: the supplement of paper PMC10307832

Columns and labels:
Test in all cases: relative viability (nuclei count vs DMSO), 5 days (fraction); higher = more cells survive
Carfilzomib + Luminespib = compound: CC(C)C[C@H](NC(=O)[C@H](CCc1ccccc1)NC(=O)CN1CCOCC1)C(=O)N[C@@H](Cc1ccccc1)C(=O)N[C@@H](CC(C)C)C(=O)[C@@]1(C)CO1 [Carfilzomib] + CCNC(=O)c1noc(-c2cc(C(C)C)c(O)cc2O)c1-c1ccc(CN2CCOCC2)cc1 [Luminespib] (partner 0.01 µM)
Procedure, shortened: (§1)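 Relative viability was taken as the ratio of nuclei in treated wells to nuclei in vehicle wells. Lung cancer cell lines in 1536-well plates received compounds by pin tool one day after seeding, either one drug alone or a fixed anchor-drug dose plus five library-drug doses (not always all listed) in √10 steps. Nuclei were counted on 4× images after 5 days of treatment, and values are medians of duplicate plates.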

Carfilzomib + Dasatinib = compound: CC(C)C[C@H](NC(=O)[C@H](CCc1ccccc1)NC(=O)CN1CCOCC1)C(=O)N[C@@H](Cc1ccccc1)C(=O)N[C@@H](CC(C)C)C(=O)[C@@]1(C)CO1 [Carfilzomib] + Cc1nc(Nc2ncc(C(=O)Nc3c(C)cccc3Cl)s2)cc(N2CCN(CCO)CC2)n1 [Dasatinib] (partner 0.075 µM)
Procedure, shortened: as §1

Olaparib + Foretinib = compound: O=C(c1cc(Cc2n[nH]c(=O)c3ccccc23)ccc1F)N1CCN(C(=O)C2CC2)CC1 [Olaparib] + COc1cc2c(Oc3ccc(NC(=O)C4(C(=O)Nc5ccc(F)cc5)CC4)cc3F)ccnc2cc1OCCCN1CCOCC1 [Foretinib] (partner 0.25 µM)
Procedure, shortened: as §1

Olaparib + Tozasertib = compound: O=C(c1cc(Cc2n[nH]c(=O)c3ccccc23)ccc1F)N1CCN(C(=O)C2CC2)CC1 [Olaparib] + Cc1cc(Nc2cc(N3CCN(C)CC3)nc(Sc3ccc(NC(=O)C4CC4)cc3)n2)n[nH]1 [Tozasertib] (partner 0.1 µM)
Procedure, shortened: as §1

| Cell Line | relative viability (Carfilzomib + Luminespib; first compound 0.001 µM) | relative viability (Carfilzomib + Luminespib; first compound 0.003162 µM) | relative viability (Carfilzomib + Luminespib; first compound 0.01 µM) | relative viability (Carfilzomib + Luminespib; first compound 0.03162 µM) | relative viability (Carfilzomib + Luminespib; first compound 0.1 µM) | relative viability (Carfilzomib + Dasatinib; first compound 0.001 µM) | relative viability (Carfilzomib + Dasatinib; first compound 0.003162 µM) | relative viability (Carfilzomib + Dasatinib; first compound 0.01 µM) | relative viability (Carfilzomib + Dasatinib; first compound 0.03162 µM) | relative viability (Carfilzomib + Dasatinib; first compound 0.1 µM) | relative viability (Olaparib + Foretinib; first compound 0.08 µM) | relative viability (Olaparib + Foretinib; first compound 0.253 µM) | relative viability (Olaparib + Foretinib; first compound 2.53 µM) | relative viability (Olaparib + Foretinib; first compound 8 µM) | relative viability (Olaparib + Tozasertib; first compound 0.08 µM) | relative viability (Olaparib + Tozasertib; first compound 0.253 µM) | relative viability (Olaparib + Tozasertib; first compound 2.53 µM) | relative viability (Olaparib + Tozasertib; first compound 8 µM) |
| --- | --- | --- | --- | --- | --- | --- | --- | --- | --- | --- | --- | --- | --- | --- | --- | --- | --- | --- |
| SW 900 | 0.164 | 0.196 | 0.213 | 0.172 | 0.149 | 0.561 | 0.467 | 0.137 | 0.141 | 0.137 | 0.999 | 0.744 | 0.994 | 0.659 | 0.516 | 0.395 | 0.536 | 0.483 |
| SW 1573 | 0.317 | 0.23 | 0.368 | 0.0748 | 0.057 | 0.653 | 0.764 | 0.372 | 0.0426 | 0.0643 | 1.01 | 0.971 | 0.737 | 0.629 | 0.148 | 0.165 | 0.234 | 0.172 |
| UMC-11 | 1.01 | 1.01 | 1.02 | 0.846 | 0.268 | 0.52 | 0.412 | 0.415 | 0.393 | 0.184 | 0.893 | 0.959 | 0.784 | 0.484 | 0.231 | 0.208 | 0.235 | 0.253 |
